Test results published in PubChem BioAssay (NCI).
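1) Cells in 96-well plates. 2) Compound, 48 h, 5 concentrations. 3) Linear interpolation between surrounding doses. 4) Unreached endpoint = highest concentration. Here, GI50 denotes the concentration required for 50% inhibition of growth. At the TGI there is no net growth.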

Legend:
Test in all cases: NCI-60 cell line screen, 48 h
DU-145 prostate = tested on: DU-145 prostate
MDA-MB-435 = tested on: MDA-MB-435
NCI-H23 lung = tested on: NCI-H23 lung
TK-10 renal = tested on: TK-10 renal
NCI-H226 lung = tested on: NCI-H226 lung
SR leukemia = tested on: SR leukemia
BT-549 breast = tested on: BT-549 breast
DMS 273 small cell lung = tested on: DMS 273 small cell lung
M19-MEL melanoma = tested on: M19-MEL melanoma
DLD-1 colon = tested on: DLD-1 colon
DMS 114 small cell lung = tested on: DMS 114 small cell lung
SNB-75 CNS = tested on: SNB-75 CNS

With O=C(O)CC(C(=O)O)C1c2ccccc2-c2ccccc21 (stereo unspecified) the TGI (DU-145 prostate) was > 100 µM, the TGI (MDA-MB-435) was > 100 µM and the TGI (NCI-H23 lung) was > 100 µM. For the same molecule, the TGI (TK-10 renal) was > 100 µM, the TGI (NCI-H226 lung) was > 100 µM and the TGI (SR leukemia) was > 100 µM. For the same molecule, the TGI (BT-549 breast) was > 100 µM.
OC(Cc1ccccc1)(Cc1ccccc1)c1ccccc1 showed a TGI (DU-145 prostate) of 32.3 µM, a TGI (MDA-MB-435) of 33.4 µM and a TGI (NCI-H23 lung) of 38.4 µM. For the same molecule, the TGI (TK-10 renal) was 42.6 µM, the TGI (NCI-H226 lung) was 34.2 µM and the TGI (SR leukemia) was 80.8 µM. The TGI (BT-549 breast) was 36.3 µM.
In the case of Nc1cc(S(=O)(=O)O)cc2cc(S(=O)(=O)O)c(N=Nc3ccc(-c4ccc(N=Nc5c(S(=O)(=O)O)cc6cc(S(=O)(=O)O)cc(N)c6c5O)cc4)cc3)c(O)c12, the TGI (DMS 273 small cell lung) is reported as > 100 µM, the TGI (M19-MEL melanoma) is reported as > 100 µM and the TGI (DLD-1 colon) is reported as > 100 µM. The TGI (NCI-H23 lung) was > 100 µM, the TGI (NCI-H226 lung) was > 100 µM and the TGI (DMS 114 small cell lung) was > 100 µM. For the same molecule, the TGI (SNB-75 CNS) was > 100 µM.
O=Nc1ccc(O)c2ncccc12 gave a TGI (DMS 273 small cell lung) of 10.3 µM, a TGI (M19-MEL melanoma) of 16.4 µM and a TGI (DU-145 prostate) of 65.9 µM. The TGI (MDA-MB-435) was 3.83 µM, the TGI (DLD-1 colon) was 25.3 µM and the TGI (NCI-H23 lung) was 3.04 µM. The TGI (TK-10 renal) was 28.2 µM, the TGI (NCI-H226 lung) was 42.8 µM and the TGI (DMS 114 small cell lung) was 12.4 µM. For the same molecule, the TGI (SR leukemia) was > 100 µM, the TGI (BT-549 breast) was 23 µM and the TGI (SNB-75 CNS) was 8.48 µM.
For CCN(CC)C(=S)SC(=S)N(CC)CC, the TGI (DU-145 prostate) was > 100 µM, the TGI (MDA-MB-435) was > 100 µM and the TGI (NCI-H23 lung) was > 80.6 µM. The TGI (TK-10 renal) was > 100 µM, the TGI (NCI-H226 lung) was > 100 µM and the TGI (BT-549 breast) was 77.4 µM. For the same molecule, the TGI (SNB-75 CNS) was 99.2 µM.
For c1ccc(-n2cnnc2-c2nsc3ccccc23)cc1, the TGI (DMS 273 small cell lung) was > 100 µM, the TGI (M19-MEL melanoma) was > 100 µM and the TGI (NCI-H23 lung) was > 100 µM. For the same molecule, the TGI (TK-10 renal) was > 100 µM and the TGI (SNB-75 CNS) was > 100 µM.
For COc1ccc(-c2nn(-c3ccc(NC(=O)Nc4ccc(Cl)c(Cl)c4)cc3)cc2-c2ccncc2)cc1Cl, the GI50 (DU-145 prostate) was 3.97 µM, the TGI (DU-145 prostate) was > 100 µM and the GI50 (MDA-MB-435) was 2.3 µM. For the same molecule, the TGI (MDA-MB-435) was > 100 µM, the GI50 (NCI-H23 lung) was 2.22 µM and the TGI (NCI-H23 lung) was > 100 µM. For the same molecule, the GI50 (TK-10 renal) was 2.04 µM, the TGI (TK-10 renal) was > 100 µM and the GI50 (NCI-H226 lung) was 3.49 µM. The TGI (NCI-H226 lung) was > 100 µM, the GI50 (SR leukemia) was 2.65 µM and the TGI (SR leukemia) was 35.6 µM. For the same molecule, the GI50 (SNB-75 CNS) was 1.17 µM and the TGI (SNB-75 CNS) was > 100 µM.
In the case of CC(C)=CCc1c(O)ccc2c1OC1c3ccc(O)c(CC=C(C)C)c3OCC21 (stereo unspecified), the TGI (DMS 273 small cell lung) is reported as 28.2 µM, the TGI (M19-MEL melanoma) is reported as 24.2 µM and the TGI (DLD-1 colon) is reported as 18.9 µM. The TGI (NCI-H23 lung) was > 55.1 µM, the TGI (NCI-H226 lung) was 30.7 µM and the TGI (DMS 114 small cell lung) was 26.3 µM. For the same molecule, the TGI (SNB-75 CNS) was 33.9 µM.
For C[C@H](C(=O)N[C@@H](Cc1ccc(-c2ccccc2)cc1)C(=O)NC1CC(C)(C)N(C)C(C)(C)C1)c1ccc(-c2ccccc2)c(F)c1, the GI50 (DU-145 prostate) was 1.58 µM, the TGI (DU-145 prostate) was 3 µM and the GI50 (MDA-MB-435) was 1.29 µM. For the same molecule, the TGI (MDA-MB-435) was 2.56 µM, the GI50 (NCI-H23 lung) was 1.54 µM and the TGI (NCI-H23 lung) was 3.08 µM. For the same molecule, the GI50 (TK-10 renal) was 1.75 µM, the TGI (TK-10 renal) was 3.32 µM and the GI50 (BT-549 breast) was 1.62 µM. For the same molecule, the TGI (BT-549 breast) was 3.25 µM, the GI50 (SNB-75 CNS) was 1.35 µM and the TGI (SNB-75 CNS) was 3.74 µM.
For COc1cc(C(C)(C)C)cc(OC)c1C(O)(c1c(OC)cc(C(C)(C)C)cc1OC)c1c(OC)cc(C(C)(C)C)cc1OC, the GI50 (MDA-MB-435) was 0.306 µM and the TGI (MDA-MB-435) was 0.974 µM.
In the case of O=[N+]([O-])c1ccc(/C=N\Nc2ccc([N+](=O)[O-])cn2)cc1, the TGI (DU-145 prostate) is reported as > 100 µM, the TGI (MDA-MB-435) is reported as > 100 µM and the TGI (NCI-H23 lung) is reported as > 100 µM. For the same molecule, the TGI (TK-10 renal) was > 100 µM, the TGI (NCI-H226 lung) was > 100 µM and the TGI (BT-549 breast) was > 100 µM. For the same molecule, the TGI (SNB-75 CNS) was > 100 µM.
Molecule N=C(N)c1ccc(-c2ccc(-c3cncc4ccccc34)s2)cc1F has a GI50 (DU-145 prostate) of 1.86 µM, a TGI (DU-145 prostate) of 3.45 µM and a GI50 (MDA-MB-435) of 1.86 µM. For the same molecule, the TGI (MDA-MB-435) was 3.49 µM, the GI50 (SNB-75 CNS) was 1.73 µM and the TGI (SNB-75 CNS) was 3.14 µM.
For Nc1ccc(OCC(O)N2C(=O)c3ccccc3C2=O)cc1 (stereo unspecified), the TGI (DU-145 prostate) was > 100 µM, the TGI (MDA-MB-435) was > 100 µM and the TGI (TK-10 renal) was > 100 µM.
For C/C1=N\NC(=O)c2ccccc2C(=O)N/N=C(\C)c2cccc1n2.O=[N+]([O-])[O-].[Zn+2], the TGI (DLD-1 colon) was > 100 µM, the TGI (NCI-H23 lung) was > 100 µM and the TGI (TK-10 renal) was > 100 µM. The TGI (DMS 114 small cell lung) was > 100 µM and the TGI (SNB-75 CNS) was > 100 µM.
